# From US20110046106A1, “ARYL SULFONAMIDES AS EFFECTIVE ANALGESICS” (BOEHRINGER INGELHEIM INTERNATIONAL GMBH, priority 2008, published 2011)
# Molecular target: T1, rat BK1 receptor (Rattus norvegicus, UniProt P97583)
# T1 construct: expressed in transfected cells
# T1 sequence (P97583 1-337): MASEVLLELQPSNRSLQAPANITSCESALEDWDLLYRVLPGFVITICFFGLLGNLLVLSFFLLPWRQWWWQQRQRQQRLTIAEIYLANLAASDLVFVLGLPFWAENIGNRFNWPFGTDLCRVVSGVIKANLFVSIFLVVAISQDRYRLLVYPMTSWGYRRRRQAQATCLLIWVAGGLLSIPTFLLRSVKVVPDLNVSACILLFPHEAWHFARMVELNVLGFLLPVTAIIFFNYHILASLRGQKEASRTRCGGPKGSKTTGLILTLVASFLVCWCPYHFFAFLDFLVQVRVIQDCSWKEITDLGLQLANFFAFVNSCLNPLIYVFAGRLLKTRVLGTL
# Test: Bradykinin BK1-receptor binding (radioligand displacement, membranes of CHO cells)
# Settings: membranes of CHO cells stably expressing the rat BK1 receptor; 1 to 5 nM [3H]-kallidin (DesArg10, Leu9); 120 minutes at room temperature
# Experimental: Description of the Method of Bradykinin BK1-Receptor Binding
# CHO cells stably expressing the rat BK1 receptor are cultivated in Dulbecco's modified medium. The medium from confluent cultures is removed and the cells are washed with PBS buffer, scraped off and isolated by centrifugation. The cells are then homogenized in suspension and the homogenate is centrifuged and resuspended. The protein content is determined and the membrane preparation obtained in this manner is then frozen at −80° C.
# After thawing, 200 μl of the homogenate (50 to 100 μg of proteins/assay) are incubated at room temperature with 1 to 5 nM of kallidin (DesArg10, Leu9), [3,4-prolyl-3,43H(N)] and increasing concentrations of the test substance in a total volume of 250 μl for 120 minutes. The incubation is terminated by rapid filtration through GF/B glass fibre filters which had been pretreated with polyethyleneimine (0.3%). The protein-bound radio-activity is measured in a TopCount NXT (Perkin Elmer/Packard). Non-specific binding is defined as radioactivity bound in the presence of 1.0 μM Lys-Des-Arg9-bradykinin. The concentration/binding curve is analysed using a computer-assisted nonlinear curve fitting. The Ki which corresponds to the test substance is determined using the data obtained in this manner.
# It is pointed out that the compounds were selected for their different structural elements and not in order to emphasise specific compounds: […]
row,SMILES,Ki [nM]
1,COc1cc(C)c(S(=O)(=O)N(C)CCOCC(=O)N(C)[C@@H]2CCN(C3CCN(C4CCOCC4)CC3)C2)c(C)c1 [Example 3],24.7
2,COc1cc(C)c(S(=O)(=O)N(C)CCOCC(=O)N(C)C[C@@H]2CCN(C(=O)CCN3CCCC3)C2)c(C)c1 [Example 6],181
3,COc1cc(C)c(S(=O)(=O)N(C)CCOCC(=O)N(C)[C@@H]2CCN(C3CCN(C4CC4)CC3)C2)c(C)c1 [Example 8],23.5
